Test results reported in patent US20120295844A1, “USE OF APROTININ FOR TREATING PARASITIC INFECTIONS AND PROGNOSING BOVINE TRYPANOTOLERANCE” (priority 2010, published 2012).

Legend:
[1] = test system: NO production by bovine macrophages; assay: NO production inhibition by bovine macrophages derived from circulating monocytes; type: cell-based; settings: LPS + bovine IFNg
Method: (§1) Two different vials of the J774.2 line were used at the 8th and 9th passages. The cells from these vials were placed in culture in parallel, and the tests were triplicated. The cells were first stimulated with Lipopolysaccharide (LPS, InvivoGen) at a concentration of 100 ng/ml and with mouse interferon gamma (IDNγ, AbD serotex) at a final concentration of 10 ng/ml and incubated in the absence (control) or in the presence of various concentrations of BPTI (range of 12.5 to 100 μM) for 15 hours at 37° C./5% CO2 in a complete medium containing DMEM glutamax (Gibco) supplemented with 10% foetal calf serum (FCS) and 1% penicillin/streptamycin. The quantity of NO produced was determined by means of a colorimetric assay according to the Griess principle (Pinelli et al., Vet. Parasitol., 2000, 92: 181-189). For each BPTI concentration, NO production inhibition percentage is calculated according to the following formula: […]
Bovine monocytes were isolated from circulating monocytes. Two independent tests were performed and each of the tests was triplicated. The monocytes were stimulated with LPS at a concentration of 250 ng/ml and bovine IFNg at a final concentration of 10 ng/ml. The cells were then incubated in the absence ([…]) for 20 hours (test 1) and 24 hours (test 2) at 37° C./5% CO2 in IMDM complete medium containing IMDM supplemented with L-glutamine at […] final, gentamicin at 50 μg/ml final, 10% FCS and 5×10^−5 M b-mercaptoethanol.

[2] = test system: "trypsin-like" (serine protease) in Leishmania donovani infantum (Ldi) lysates; assay: BAPNA degradation by Leishmania donovani infantum (Ldi) lysates; type: biochemical; settings: BPTI 625 μg; lysate alone 2.893
Method: (§2) The parasites were placed in rodent culture and purified on a DEAE cellulose column. The parasites were then counted, and lysed by means of 4 successive 1-minute passages in liquid nitrogen and in a water-bath at 37° C. The tests were conducted on three independent procedures in triplicate using […]. The method used for detecting “trypsin-like” (serine protease) consists of measuring, as a function of time, the initial degradation rate of a homogeneous substrate, N-benzoyl-ariginine-p-nitroaniline (BAPNA), under the effect of “trypsin-like” found in lysates in the presence of absence of BPTI. The appearance of the degradation product, p-nitroalinine (p-Na), which is yellow in colour, is measured by means of spectrophotometry at 405 nm. The enzyme activity calculation is performed according to the Beer-Lambert law.
(§3) Leishmania (Ldi and Ldd8) were placed in culture in RMPI supplemented with 10% FCS, 1% penicillin/streptomycin and 1% Ultraglutamine and placed in an incubator) 37° C./5% CO2 for one week. The leishmania are counted and lysed according to the protocol defined for trypanosome lysis. The method for detecting and the method for calculating the enzyme activity were identical to those used for trypanosomes. The tests using Ldi and Ldd8 were conducted on three independent procedures in triplicate using […].

[3] = test system: Trypanosoma congolense IL1180; assay: Viability of Trypanosoma congolense IL1180 cultured in vitro (FACS, microscopy); type: cell-based; settings: for mortality induced by BPTI (natural mortality subtracted): 48 hours
Method: Before adding BPTI and for measurement times: 1.5 hours, 17 hours and 24 hours, the parasites (Trypanosoma congolense IL1180) are clearly visible; their form is as expected (fusiform), and they are mobile. However, the mortality becomes increasingly visible over time. The impact of BPTI on morphology is perceptible 17 hours (and thereafter) after adding BPTI to the culture. […] In order to analyze the effect of BPTI on parasite viability, flow cytometry measurements were made at different times (1.5 hours, 17 hours, 24 hours and 48 hours after adding 100 μM or 200 μM of BPTI for parasite concentrations of 5×10^6 parasites/ml and 10×10^6 parasites/ml). The results obtained are represented in graphs A and B in FIG. 7. There is a “natural” mortality of Trypanosoma congolense in vitro, due to the difficulty maintaining sanguicolous forms of Trypanosoma congolense in liquid culture. This mortality increases over time and reaches values of 49.1% and 47.1% under conditions using 5.10^6 parasites/ml and 10.10^6 parasites/ml, respectively. However, a trypanocidal action of BPTI may be observed on trypanosome cultures, a slight dose-dependent effect of BPTI on parasite viability may be recorded. The effect of BPTI is extremely significant and appears to be also time-dependent. […] The mortality induced by BPTI on a population of 5×10^6 trypanosomes (10×10^6 parasites/ml) under the same conditions is 49.6% and 48.8%, respectively (see graphs A and B in FIG. 8).

[4] = test system: Leishmania donovani infantum (Ldi); assay: Viability and growth of Leishmania donovani infantum (Ldi) cultured in vitro (FACS); type: cell-based; settings: BPTI 50, 100, 200 μM
Method: The growth and viability of Leismania donovani infantum parasites were measured by FACS at 4, 12, 24, 48, 72, 144 and 168 hours of culture after addition of BPTI at concentrations of 50, 100 and 200 μM. The results are presented in graphs A and B in FIG. 10.
The effect of BPTI was tested for each time value with a non-parametric test (Kruskal-Wallis test).

[5] = test system: NO production by RAW 264.7 macrophage line cells; assay: NO production inhibition by RAW 264.7 macrophage line (Griess assay); type: cell-based, mouse; settings: LPS + IFNγ stimulated RAW 264.7 cells
Method: as §1
Two different vials of the RAW 264.7 line were used at the 10th and 11th passages. The cells from these vials were placed in culture in parallel, and the tests were triplicated and performed as described above.

[6] = test system: "trypsin-like" (serine protease) in Leishmania donovani donovani (Ldd8) lysates; assay: BAPNA degradation by Leishmania donovani donovani (Ldd8) lysates; type: biochemical; settings: BPTI 625 μg; lysate alone 1.767
Method: as §2, §3

[7] = test system: NO production by J774.2 macrophage line cells; assay: NO production inhibition by J774.2 macrophage line (Griess assay); type: cell-based, mouse; settings: LPS + IFNγ stimulated J774.2 cells, 15 hours
Method: as §1

[8] = test system: "trypsin-like" (serine protease) in Trypanosoma congolense (Tc. IL1180) lysates; assay: BAPNA degradation by Trypanosoma congolense (Tc. IL1180) lysates; type: biochemical; settings: BPTI 3.125 mg/ml or 481.25 μM or 625 μg/well, BAPNA 0.315 mM
Method: as §2

aprotinin [BPTI] was tested, and the “mean inhibition of NO production” value ([1]; Test 1, 20 hours, BPTI 12.5 μM) was 8.4%, the “mean inhibition of NO production” value ([1]; Test 1, 20 hours, BPTI 25 μM) was 14.2% and the “mean inhibition of NO production” value ([1]; Test 1, 20 hours, BPTI 50 μM) was 32.6%. For the same substance, the “mean inhibition of NO production” value ([1]; Test 1, 20 hours, BPTI 100 μM) was 70.5%, the “mean inhibition of NO production” value ([1]; Test 2, 24 hours, BPTI 6.25 μM) was 12% and the “mean inhibition of NO production” value ([1]; Test 2, 24 hours, BPTI 12.5 μM) was 25.9%. The “mean inhibition of NO production” value ([1]; Test 2, 24 hours, BPTI 25 μM) was 62.5%, the “mean inhibition of NO production” value ([1]; Test 2, 24 hours, BPTI 50 μM) was 70% and the “mean inhibition of NO production” value ([1]; Test 2, 24 hours, BPTI 100 μM) was 60.2%. For the same substance, the “lysate enzyme activity with BPTI” value [2] was 1.555, the “effect on parasite morphology (microscopic observation)” value ([3]; 17 hours and thereafter after adding BPTI to the culture) was “Spherical forms are observed” and the “mortality induced by BPTI (natural mortality subtracted)” value (“mortality induced by BPTI” for short) ([3]; BPTI 100 μM, 2.5×10^6 trypanosomes (5×10^6 parasites/ml)) was 46%. For the same substance, the “mortality induced by BPTI” value ([3]; BPTI 100 μM, 5×10^6 trypanosomes (10×10^6 parasites/ml)) was 49.6%, the “mortality induced by BPTI” value ([3]; BPTI 200 μM, 2.5×10^6 trypanosomes (5×10^6 parasites/ml)) was 47.4% and the “mortality induced by BPTI” value ([3]; BPTI 200 μM, 5×10^6 trypanosomes (10×10^6 parasites/ml)) was 48.8%. For the same substance, the “increase of in vitro parasite mortality” value ([3]; summary statement referring to Example 2) was 50%, the “effect on the viability of leishmania (Kruskal-Wallis test)” value (“effect on the viability of leishmania” below) ([4]; 72 hours, P-value=0.05) was “at the limit of significance” and the “effect on the viability of leishmania” value ([4]; 144 hours, P-value=0.05) was “significant effect”. The “effect on the number of leishmania (growth, Kruskal-Wallis test)” value ([4]; 168 hours only, P-value=0.03) was “significant effect”, the “effect on the viability of leishmania” value ([4]; 168 hours, P-value=0.03) was “significant effect” and the “effect on the viability of leishmania” value ([4]; other observation times (4, 12, 24, 48 hours)) was “not significant”. For the same substance, the NO production inhibition ([5]; BPTI 12.5 μM) was “NO inhibition was observed”, the NO production inhibition ([5]; BPTI 25 μM) was 0.2% and the NO production inhibition ([5]; BPTI 50 μM) was 16.1%. For the same substance, the NO production inhibition ([5]; BPTI 100 μM) was 47.6%, the “lysate enzyme activity with BPTI” value [6] was 1.0893 and the NO production inhibition ([7]; BPTI 12.5 μM) was 1.7%. It also gave an NO production inhibition ([7]; BPTI 25 μM) of 16.2%, an NO production inhibition ([7]; BPTI 50 μM) of 30.1% and an NO production inhibition ([7]; BPTI 100 μM) of 59.5%. For the same substance, the “mean inhibition of lysate enzyme activity” value [8] was 44.6% and the “lysate enzyme activity in the presence of BPTI” value ([8]; lysate alone 1.893) was 1.048 (Standard deviation 0.073).
